In experiment [1] the test system is BCL-2 G101V knock-in cell line H96 (derive from RS4;11). Briefly: Bcl 2-G101V Knock-In RS4;11 Cell Proliferation Assay. Type of experiment: cell-based. As to conditions: Homo sapiens, RS4;11 Bcl-2 G101V knock-in clone H96, 48 hrs, CellTiter-GLO, read-out: Cellular proliferation assay (IC50, nM) RS4. The essentials:
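CellTiter-Glo luminescence after 48 h, 37 °C compound treatment (10 concentrations, maximum 1 μM or 10 μM) gave mean IC50 values. Cells were 50,000 per well of H96, a BCL2-G101V knock-in single clone derived from RS4;11 by Cas9 editing.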

For experiment [2], the system named is RS4;11 (BCL-2 dependent acute lymphoblastic leukemia cell line). The experiment is described as follows: RS4;11 Cell Proliferation Assay. Type of experiment: cell-based. As to conditions: Homo sapiens, RS4-11, RS4;11 cells, read-out: Cellular proliferation assay (IC50, nM) RS4. The essentials:
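Viability measured via CellTiter-Glo luminescence after a 48 h, 37 °C exposure to compounds (10 points, highest 1 μM). Seeding was 50,000 RS4;11 cells per well in 10% FBS RPMI-1640; IC50 given as mean.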

Experiment [3] deals with recombinant human Bcl-2-G101V protein. The experiment is described as follows: Bcl-2-G101V TR-FRET Assay. Type of experiment: binding. The note with it: ratio of biochemical IC50 Bcl-2 G101V / Bcl-2 WT. The essentials: (§1)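 Percent inhibition of the Bcl-2-G101V–ligand interaction was computed from the 490 nm to 520 nm emission ratio after 337 nm excitation, over increasing compound concentrations; a four-parameter logistic fit gave IC50.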
Background: TR-FRET usually uses a lanthanide donor and a delayed reading to cut background.

The target of experiment [4] is recombinant human Bcl-2-G101V protein (Homo sapiens (Human), UniProt P10415, G101V). Briefly: Bcl-2-G101V TR-FRET Assay. Format: binding. As to conditions: Bcl-2 G101V mutant, TR-FRET; read-out: Biochemical assay (IC50, nM) Bcl-2 G101V. The essentials:
as §1

For experiment [5], the target named is Recombinant human Bcl-2 protein (Homo sapiens (Human), UniProt P10415). Briefly: Bcl-2 TR-FRET Assay. The note with it: Bcl-2 wild type, TR-FRET; read-out: Biochemical assay (IC50, nM) Bcl-2 WT. Format: binding. The essentials: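 TR-FRET read (337 nm excitation, 520/490 nm emission) after 1 h with 0.5 nM FITC-labeled Bak peptide and Tb-cryptate anti-6His antibody. Bcl-2 at 0.05 nM had been pre-incubated 0.5 h with compound. IC50 fitted by four-parameter logistic equation.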

Here are results for 10 molecules from patent US20240376097A1, “BCL-2 Inhibitor” (BeiGene Ltd., priority 2020, published 2024).

Regarding `COc1cc(CN2CCN(C3CC4(CCN(c5ccc(C(=O)NS(=O)(=O)c6ccc(NC[C@H]7CC[C@](C)(O)CC7)c([N+](=O)[O-])c6)c(Oc6cnc7[nH]cc(Cl)c7c6)c5)CC4)C3)[C@H](c3ccccc3C(C)C)C2)ccc1C1CC1` [Example 252, 2-((3-chloro-1H-pyrrolo[2,3-b]pyridin-5-yl)oxy)-4-(2-((R)-4-(4-cyclopropyl-3-methoxybenzyl)-2-(2-isopropylphenyl)piperazin-1-yl)-7-azaspiro[3.5]nonan-7-yl)-N-((4-((((1r,4r)-4-hydroxy-4-methylcyclohexyl)methyl)amino)-3-nitrophenyl)sulfonyl)benzamide], the IC50 in experiment [1] amounted to 2.6 nM; in experiment [2] it was 0.26 nM; in experiment [4], 3.5 nM; in experiment [5], 1.2 nM. In addition, the “Ratio of Bcl-2 G101V/WT” value in experiment [3] was 2.8.

For the molecule `[2H]C([2H])([2H])Oc1ccc(CN2CCN(C3CC4(CCN(c5ccc(C(=O)NS(=O)(=O)c6ccc(NC[C@H]7CC[C@](C)(O)CC7)c([N+](=O)[O-])c6)c(Oc6cnc7[nH]ccc7c6)c5)CC4)C3)[C@H](c3ccccc3C(C)C)C2)cc1OC([2H])([2H])[2H]` [Example 253, 2-((1H-pyrrolo[2,3-b]pyridin-5-yl)oxy)-4-(2-((R)-4-(3,4-bis(methoxy-d3)benzyl)-2-(2-isopropylphenyl)piperazin-1-yl)-7-azaspiro[3.5]nonan-7-yl)-N-((4-((((1r,4r)-4-hydroxy-4-methylcyclohexyl)methyl)amino)-3-nitrophenyl)sulfonyl)benzamide], the IC50 in experiment [1] is 0.29 nM; in experiment [2], 0.11 nM; in experiment [4], 0.089 nM; in experiment [5], 0.027 nM. For the same molecule, the “Ratio of Bcl-2 G101V/WT” value in experiment [3] amounted to 3.3.

Turning to `COc1ccc(CN2CCN(C3CC4(C3)CN(c3ccc(C(=O)NS(=O)(=O)c5ccc(NC[C@H]6CC[C@](C)(O)CC6)c([N+](=O)[O-])c5)c(Oc5cnc6[nH]ccc6c5)c3)C4)[C@H](c3ccccc3C(C)C)C2)cn1` [Example 254, 2-((1H-pyrrolo[2,3-b]pyridin-5-yl)oxy)-N-((4-((((1r,4r)-4-hydroxy-4-methylcyclohexyl)methyl)amino)-3-nitrophenyl)sulfonyl)-4-(6-((R)-2-(2-isopropylphenyl)-4-((6-methoxypyridin-3-yl)methyl)piperazin-1-yl)-2-azaspiro[3.3]heptan-2-yl)benzamide], the IC50 in experiment [1] was 0.25 nM; in experiment [2], 0.09 nM; in experiment [4], 0.067 nM; in experiment [5], 0.017 nM. For the same molecule, the “Ratio of Bcl-2 G101V/WT” value in experiment [3] came to 3.9.

As for `CC(C)c1ccccc1[C@@H]1CN(CC2C3CC4CC(C3)CC2C4)CCN1C1CC2(CCN(c3ccc(C(=O)NS(=O)(=O)c4ccc(NC[C@H]5CC[C@](C)(O)CC5)c([N+](=O)[O-])c4)c(Oc4cnc5[nH]ccc5c4)c3)CC2)C1` (stereo partly drawn) [Example 259, 2-((1H-pyrrolo[2,3-b]pyridin-5-yl)oxy)-4-(2-((2R)-4-(((1R,3S,5R)-adamantan-2-yl)methyl)-2-(2-isopropylphenyl)piperazin-1-yl)-7-azaspiro[3.5]nonan-7-yl)-N-((4-((((1r,4r)-4-hydroxy-4-methylcyclohexyl)methyl)amino)-3-nitrophenyl)sulfonyl)benzamide], the IC50 in experiment [1] worked out at 4.2 nM; in experiment [2] it was 0.55 nM; in experiment [4], 3.4 nM; in experiment [5], 0.91 nM. For the same molecule, the “Ratio of Bcl-2 G101V/WT” value in experiment [3] came out at 3.8.

Regarding `COc1cc(CN2CCN(C3CC4(CCN(c5ccc(C(=O)NS(=O)(=O)c6ccc(NC[C@H]7CC[C@](C)(O)CC7)c([N+](=O)[O-])c6)c(Oc6cnc7[nH]ccc7c6)c5)CC4)C3)[C@H](c3ccccc3C(C)C)C2)ccc1C(C)C` [Example 263, 2-((1H-pyrrolo[2,3-b]pyridin-5-yl)oxy)-N-((4-((((1r,4r)-4-hydroxy-4-methylcyclohexyl)methyl)amino)-3-nitrophenyl)sulfonyl)-4-(2-((R)-4-(4-isopropyl-3-methoxybenzyl)-2-(2-isopropylphenyl)piperazin-1-yl)-7-azaspiro[3.5]nonan-7-yl) benzamide], the IC50 came out at 1.01 nM in experiment [1], 0.18 nM in experiment [2], 4.9 nM in experiment [4] and 1.3 nM in experiment [5]. In experiment [3], the “Ratio of Bcl-2 G101V/WT” value is listed as 3.9.

Take `COc1cc(CN2CCN(C3CC4(CCN(c5ccc(C(=O)NS(=O)(=O)c6ccc(NC[C@H]7CC[C@](C)(O)CC7)c([N+](=O)[O-])c6)c(Oc6cnc7[nH]cc(F)c7c6)c5)CC4)C3)[C@H](c3ccccc3C(C)C)C2)ccc1C(C)C` [Example 264, 2-((3-fluoro-1H-pyrrolo[2,3-b]pyridin-5-yl)oxy)-N-((4-((((1r,4r)-4-hydroxy-4-methylcyclohexyl)methyl)amino)-3-nitrophenyl)sulfonyl)-4-(2-((R)-4-(4-isopropyl-3-methoxybenzyl)-2-(2-isopropylphenyl)piperazin-1-yl)-7-azaspiro[3.5]nonan-7-yl)benzamide]: the IC50 in experiment [1] amounted to 0.78 nM; in experiment [2], 0.26 nM; in experiment [4], 7.3 nM; in experiment [5], 1.9 nM. Moreover, the “Ratio of Bcl-2 G101V/WT” value in experiment [3] is given as 3.8.

In the case of `CCc1ccc(CN2CCN(C3CC4(CCN(c5ccc(C(=O)NS(=O)(=O)c6ccc(NC[C@H]7CC[C@](C)(O)CC7)c([N+](=O)[O-])c6)c(Oc6cnc7[nH]ccc7c6)c5)CC4)C3)[C@H](c3ccccc3C(C)C)C2)cc1OC` [Example 265, 2-((1H-pyrrolo[2,5-b]pyridin-5-yl)oxy)-4-(2-((R)-4-(4-ethyl-3-methoxybenzyl)-2-(2-isopropylphenyl)piperazin-1-yl)-7-azaspiro[3.5]nonan-7-yl)-N-((4-((((1r,4r)-4-hydroxy-4-methylcyclohexyl)methyl)amino)-3-nitrophenyl)sulfonyl)benzamide], the IC50 was 0.65 nM in experiment [1], 0.15 nM in experiment [2], 1.9 nM in experiment [4] and 0.66 nM in experiment [5]. For the same molecule, in experiment [3], the “Ratio of Bcl-2 G101V/WT” value came out at 3.

On to `CCc1ccc(CN2CCN(C3CC4(CCN(c5ccc(C(=O)NS(=O)(=O)c6ccc(NC[C@H]7CC[C@](C)(O)CC7)c([N+](=O)[O-])c6)c(Oc6cnc7[nH]cc(F)c7c6)c5)CC4)C3)[C@H](c3ccccc3C(C)C)C2)cc1OC` [Example 266, 4-(2-((R)-4-(4-ethyl-3-methoxybenzyl)-2-(2-isopropylphenyl)piperazin-1-yl)-7-azaspiro[3.5]nonan-7-yl)-2-((3-fluoro-1H-pyrrolo[2,3-b]pyridin-5-yl)oxy)-N-((4-((((1r,4r)-4-hydroxy-4-methylcyclohexyl)methyl)amino)-3-nitrophenyl)sulfonyl) benzamide], for which the IC50 in experiment [1] was found to be 0.66 nM; in experiment [2] it was 0.22 nM; in experiment [4], 4.1 nM; in experiment [5], 1.4 nM. The “Ratio of Bcl-2 G101V/WT” value in experiment [3] is listed as 3.

Consider `COc1cc(CN2CCN(C3CC4(C3)CN(c3ccc(C(=O)NS(=O)(=O)c5ccc(NC[C@H]6CC[C@](C)(O)CC6)c([N+](=O)[O-])c5)c(Oc5cnc6[nH]cc(F)c6c5)c3)C4)[C@H](c3ccccc3C(C)C)C2)ccc1C(C)C` [Example 269, 2-((3-fluoro-1H-pyrrolo[2,3-b]pyridin-5-yl)oxy)-N-((4-((((1r,4r)-4-hydroxy-4-methylcyclohexyl)methyl)amino)-3-nitrophenyl)sulfonyl)-4-(6-((R)-4-(4-isopropyl-3-methoxybenzyl)-2-(2-isopropylphenyl)piperazin-1-yl)-2-azaspiro[3.3]heptan-2-yl) benzamide], for which the IC50 was 0.41 nM in experiment [1], 0.17 nM in experiment [2], 4.9 nM in experiment [4] and 2.1 nM in experiment [5]. Besides, the “Ratio of Bcl-2 G101V/WT” value in experiment [3] was 2.4.

For `COc1cc(CN2CCN(C3CC4(C3)CN(c3ccc(C(=O)NS(=O)(=O)c5ccc(NC[C@H]6CC[C@](C)(O)CC6)c([N+](=O)[O-])c5)c(Oc5cnc6[nH]ccc6c5)c3)C4)[C@H](c3ccccc3C(C)C)C2)ccc1C(C)C` [Example 270, 2-((1H-pyrrolo[2,3-b]pyridin-5-yl)oxy)-N-((4-((((1r,4r)-4-hydroxy-4-methylcyclohexyl)methyl)amino)-3-nitrophenyl)sulfonyl)-4-(6-((R)-4-(4-isopropyl-3-methoxybenzyl)-2-(2-isopropylphenyl)piperazin-1-yl)-2-azaspiro[3.3]heptan-2-yl) benzamide], the IC50 in experiment [1] was found to be 0.64 nM; in experiment [2], 0.16 nM; in experiment [4] it was 2.9 nM; in experiment [5], 1.1 nM. Also, the “Ratio of Bcl-2 G101V/WT” value in experiment [3] is given as 2.6.
